Measured values: the OligoGym collection
“And” between values parts separate entries of the source, which are not always exact repeats. Identical values can stand only once. After the bases stand the sugars from the 5' end (letter, count) and the backbone: PS all phosphorothioate, else s phosphorothioate and o phosphodiester by linkage. Methylation of C is not given here. e = 2'-O-(2-methoxyethyl) (MOE); k = constrained ethyl (cEt); d = 2'-deoxy (DNA)

Target: IRF4
Conditions: ASO

Row | Sequence | target mRNA inhibition (MM.1R, 1 µM) | target mRNA inhibition (SK-MEL-28, 4 µM) [%] | further results
1 | ATTATATACTGGTTGG (sugars kkddddddddddkeke, PS) | 32% | – | –
2 | ATTATATACTGGTTGG (sugars kkdddddddddkekek, PS) | 52% | – | –
3 | ATTCAATGCACCCCCC (sugars k3 d10 k3, PS) | 2% | – | –
4 | ATTCACACTGCCGTGA (sugars k3 d10 k3, PS) | – | 34 | –
5 | ATTCAGGAGAGCCCCT (sugars k3 d10 k3, PS) | -15% | – | –
6 | ATTCATGATGTATACC (sugars k3 d10 k3, PS) | – | 62 | –
7 | ATTGCCTGTTAAGTCC (sugars k3 d10 k3, PS) | – | 73 | –
8 | ATTTACAGCATCTAAG (sugars k3 d10 k3, PS) | – | 47 | –
9 | ATTTCATAGCTAGTTC (sugars k3 d10 k3, PS) | – | 44 | –
10 | ATTTCCGGGTGTGGCT (sugars k3 d10 k3, PS) | 7% | – | –
11 | CAAAACCAGTACAGTC (sugars k3 d10 k3, PS) | – | 49 | –
12 | CAAAATAGTCACTCAC (sugars k3 d10 k3, PS) | – | -3 | –
13 | CAAACCCTACTGGGTA (sugars k3 d10 k3, PS) | – | 32 | –
14 | CAAACTCCTCAGGGAA (sugars k3 d10 k3, PS) | – | 23 | –
15 | CAAAGCATAGAGTCAC (sugars k3 d10 k3, PS) | – | 36 | –
16 | CAACAGGCGGACACGC (sugars k3 d10 k3, PS) | – | 42 | –
17 | CAACCATTTTCACAAG (sugars k4 d8 k4, PS) | – | 5 | –
18 | CAAGAAGGATGGGACC (sugars k3 d10 k3, PS) | – | 25 | –
19 | CAAGCAGTGATGTCAG (sugars k2 d9 e3 k2, PS) | 15% and 8% | – | –
20 | CAAGCAGTGATGTCAG (sugars kdddddddddkekeke, PS) | 10% and 12% | – | –
21 | CAAGCTGGGCCTTGCC (sugars k3 d10 k3, PS) | – | 34 | –

Row | Sequence | target mRNA inhibition (MM.1R, 1 µM) | target mRNA inhibition (SK-MEL-28, 4 µM) [%] | further results
22 | CAAGGAGATCCACCTG (sugars k3 d10 k3, PS) | – | -21 | –
23 | CAAGTGTCTAAAGTCC (sugars kkddddddddddkeke, PS) | 16% and 17% | – | –
24 | CAATGAACGGAAGTTT (sugars k3 d10 k3, PS) | – | 33 | –
25 | CAATTTATGCCATGGA (sugars k3 d10 k3, PS) | – | 62 | target mRNA inhibition (MM.1R, 0.074 µM): -4%; target mRNA inhibition (MM.1R, 0.222 µM): 5%; target mRNA inhibition (MM.1R, 0.666 µM): 9%; target mRNA inhibition (MM.1R, 2 µM): 40%
26 | CACAGAGGACTTCGGG (sugars k3 d10 k3, PS) | – | 49 | –
27 | CACATAATCCAGTATC (sugars k3 d10 k3, PS) | – | 43 | –
28 | CACATCAATGTTTTAG (sugars kkddddddddddkeke, PS) | 25% and 39% | – | –
29 | CACATCAATGTTTTAG (sugars kkdddddddddekeke, PS) | 28% and 27% | – | –
30 | CACATGATAAGGCACT (sugars k3 d10 k3, PS) | 21% | – | –
31 | CACCAATGGCAGCACC (sugars k3 d10 k3, PS) | 16% | – | –
32 | CACCAGCCATCGGCAG (sugars k3 d10 k3, PS) | -19% | – | –
33 | CACCTCTTCACTACCT (sugars k3 d10 k3, PS) | 0% | – | –
34 | CACGGACGGAGGCGGC (sugars k3 d10 k3, PS) | – | 18 | –
35 | CACTACCATATTGGAA (sugars k3 d10 k3, PS) | – | 22 | –
36 | CACTCTTACTCCGCTG (sugars k3 d10 k3, PS) | -12% | – | –
37 | CACTGAACCATGTTCC (sugars k3 d10 k3, PS) | – | 61 | –
38 | CACTTTGTACGGGTCT (sugars k3 d10 k3, PS) | 11% | – | –
39 | CAGAAACCCTCATCAC (sugars k3 d10 k3, PS) | – | 4 | –
40 | CAGAACGAGGTAAATC (sugars k3 d10 k3, PS) | – | 59 | –
41 | CAGAATGAAGTTAAGG (sugars k3 d10 k3, PS) | – | 50 | –
42 | CAGACCTTATGCTTGG (sugars k4 d8 k4, PS) | – | 26 | –

Row | Sequence | target mRNA inhibition (MM.1R, 1 µM) | target mRNA inhibition (SK-MEL-28, 4 µM) [%] | further results
43 | CAGAGCCAACTTATAG (sugars k3 d10 k3, PS) | 30% and 43% | – | –
44 | CAGAGTTGTTCCACCC (sugars k3 d10 k3, PS) | – | 62 | –
45 | CAGATAACGAGGTGCC (sugars k3 d10 k3, PS) | – | 30 | –
46 | CAGATTGAATCCATAT (sugars k3 d10 k3, PS) | 20% | – | –
47 | CAGCAAAACGCAGAGC (sugars k3 d10 k3, PS) | – | 54 | –
48 | CAGCAGGTTTTGAGAC (sugars k3 d10 k3, PS) | – | 20 | –
49 | CAGCATATTACAAACG (sugars k3 d10 k3, PS) | – | 58 | –
50 | CAGCATCTAAGGCAAG (sugars k3 d10 k3, PS) | – | 54 | –
51 | CAGGAAACCGCTGGCA (sugars k3 d10 k3, PS) | – | 74 | –
52 | CAGGAACTGACCTAAC (sugars k3 d10 k3, PS) | -7% | – | –
53 | CAGGCGGACACGCCCG (sugars k3 d10 k3, PS) | -5% | – | –
54 | CAGGGAGCGGCCGTGG (sugars k3 d10 k3, PS) | – | 17 | –
55 | CAGTAACTTGACTTGA (sugars k3 d10 k3, PS) | – | 39 | –
56 | CAGTGACTTGCATCCA (sugars kddddddddddkekek, PS) | 29% | – | –
57 | CAGTGACTTGCATCCA (sugars kdddddddddkekeke, PS) | 19% | – | –
58 | CAGTGACTTGCATCCA (sugars kkddddddddddkeke, PS) | 33% | – | –
59 | CAGTGATGTCAGGTTT (sugars k3 d10 k3, PS) | 62% | – | target mRNA inhibition (MM.1R, 0.074 µM): 22%; target mRNA inhibition (MM.1R, 0.222 µM): 39%; target mRNA inhibition (MM.1R, 0.666 µM): 62%; target mRNA inhibition (MM.1R, 2 µM): 85%
60 | CAGTGATGTCAGGTTT (sugars kdddddddddkekeke, PS) | 48% | – | –
61 | CAGTGATGTCAGGTTT (sugars kkdddddddddkdkdk, PS) | 47% | – | target mRNA inhibition (MM.1R, 0.074 µM): 5%; target mRNA inhibition (MM.1R, 0.222 µM): 23%; target mRNA inhibition (MM.1R, 0.666 µM): 40%; target mRNA inhibition (MM.1R, 2 µM): 67%
